Laboratory results as given in patent EP0309566B1, “STLV-III-RELATED POLYPEPTIDES, DIAGNOSTIC SYSTEMS AND ASSAY METHODS” (JOHNSON AND JOHNSON, priority 1987, dated 1994).

Test system: sera from Swedish blood donors negative for HIV-1 and HIV-2 antibodies
Test: Specificity ELISA (Example 12, Figure 3), negative control sera
Format: binding, human
Details: 20 negative control sera; positive O.D. above 0.150
Excerpt: In the Figures forming a portion of the disclosure of this invention: • Figure 1 illustrates a portion of the STLV-IIImac TMP amino acid residue sequence. The sequence is shown from left to right and in the direction of amino-terminus to carboxy-terminus in a single-letter code. The residue positions have been numbered as illustrated from 1-33. • Figure 2 illustrates, in a manner similar to Figure 1, a portion of the amino acid residue sequence of the HIV-1 TMP and represent gp41 amino acid residues […] as described in Ratner et al., Nature, 313:277-283 (1985). However, for ease of discussion, those residue positions have been renumbered as illustrated from 1-32. • Figure 3 contains 2 panels illustrating antibody determinations using a diagnostic system of this invention to assay (a) 20 sera from individuals in Guinea-Bissau previously determined to have antibodies against HIV-related viruses (West Africans), (b) 20 sera from HIV-1-infected individuals and (c) 20 sera from blood donors without antibodies to HIV-1 or HIV-2. Sera were considered positive (closed symbols) when they produced optical density (O.D.) values above 0.150 (the mean O.D. of negative samples plus 6 standard deviations). Negative sera are represented by open symbols. […]

Sequence: AIEKYLEDQAQLNAWCAFRQVC [p80]
- immunoreaction with sera: did not produce any substantial immunoreaction
